This note sets out measurements from patent EP0652009A1, “Identification and use of protease inhibitors” (ELI LILLY AND COMPANY, priority 1993, dated 1995).

The target of this test is Cathepsin D (Homo sapiens, UniProt P07339). Description: Assay 3: cathepsin D inhibition activity (non-cellular assay, chromogenic substrate). It is filed as biochemical. Details: Frozen human placental tissue was thawed and homogenized; from tissue; host or cells: human placenta. Particulars: cathepsin D from human placental tissue; for Ki: chromogenic substrate, pH 3.7, 37°C; for inhibition at 4 µM: read-out: % inhibition at 4µ M. As for the experimental part:
A third non-cellular assay for determining in vitro aspartyl protease inhibitory activity is generally described in Jupp, R.A. et al., (1990) Biochem. J., 265:871-878 and Rao et al., J. Med. Chem. (1993), in press. The assay is carried out by incubating a test compound with a suitable aspartyl protease, such as cathepsin D, in the presence of a chromogenic substrate. The inhibition constant, Ki, value may then be determined by quantifying the competitive inhibition of the hydrolysis of the chromogenic substrate. A variety of chromogenic substrates that are useful for assaying aspartyl protease activity are discussed in Dunn, et al., (1986) Biochem. J., 237:899-906. A preferred chromogenic substrate for a cathepsin D assay is disclosed in Scarborough, P.E. et al., Protein Science, (1993), 2:264-276.
Concentrations of substrate solutions and cleavage products may be verified using amino acid analysis. The enzyme preparations may be titrated with a tightly binding inhibitor to quantitate the active concentration of the enzyme. Enzyme concentrations are typically in the range of from 1-6 nM. Stock solutions of the test compound are prepared at concentrations ranging from 1.0 to 5.0 mg/mL, and then 50-100 µL portions of these stock solutions may be further diluted to a concentration in the range of 5 to 300 µM for rate determinations.
[…] Then, the test compounds are assayed over a concentration range of, for example, 5 to 300 µM for rate determinations.
A decrease in absorbance in the range of 284-324 nm may be monitored using a spectrophotometer. Absorbance readings are typically taken at various timepoints. The initial velocities are then plotted versus the initial substrate concentration. […] Estimates of Ki may then be determined using the Dixon construction. Dixon, M., (1953) Biochem J., 55:170-171.
If the ratio of the total active enzyme concentration to the estimated Ki value ([E]t/Ki) is less than 0.2, then the precise Ki value may be computed by using a non-linear curve fitting program based on the equation: v= Vmax [S]/[S] + Km (1 + [I]/Ki ) [formula] where v is the initial rate, [S] is the initial substrate concentration, [I] is the inhibitor concentration and Km and Ki are defined above. […] P.J.F., (1972) Biochem J., 127:321-333. This Assay is exemplfied in Assay 3.
The homogenate was centrifuged at 10,000 rpm for 30 minutes in a Sorvall GSA rotor. The supernatant was adjusted to pH 3.7 using 5.7N HCl and then sodium acetate was added to a concentration of 0.1M. The resultant mixture was incubated for 30 minutes at 0°C, resulting in the formation of a precipitate. This precipitate was removed by centrifugation (30 minutes, 10,000 rpm). The acidic supernatent was applied to a chromatography column (pepstatinyl agarose equilibrated with 0.1M sodium acetate, pH 3.5, 0.1% Brij 35, and 1M NaCl), washed until the OD₂₈₀ of the effluent returned to baseline, and then eluted with 50mM Tris-HCl, pH 8.6, 0.1% Brij 35, and 1M NaCl. The eluent was dialyzed against 10mM sodium phosphate, pH 7.0, 0.1% Brij 35, and 0.1M NaCl, and then applied to a 1 mL DEAE-Sephacel column equilibrated with the same buffer. Cathepsin D was recovered in the breakthrough fraction.
The enzyme mixture (125 µL buffer (0.1M sodium formate at pH 3.7), 1 µL of a 1mM solution of test compound, 4 µL of DMSO, enzyme and water to provide a total volume of 230 µL) was vortexed and prewarmed for four minutes before the addition of the chromogenic substrate. After warming, the enzyme mixture was added to 20 µL of a […] dilution of substrate solution. A control reaction mixture was similarly prepared without the addition of the test compound. The percent of inhibition of the initial rate of reaction in the presence of a particular concentration of test compound (i.e. 4 µM) may be determined for the test compound by monitoring the reaction mixture in parallel to the control reaction. […]

Where [1] appears, read: 4 µM test compound, inhibition of initial rate relative to control.

Cathepsin D, sequence (P07339 169-412 limits assumed): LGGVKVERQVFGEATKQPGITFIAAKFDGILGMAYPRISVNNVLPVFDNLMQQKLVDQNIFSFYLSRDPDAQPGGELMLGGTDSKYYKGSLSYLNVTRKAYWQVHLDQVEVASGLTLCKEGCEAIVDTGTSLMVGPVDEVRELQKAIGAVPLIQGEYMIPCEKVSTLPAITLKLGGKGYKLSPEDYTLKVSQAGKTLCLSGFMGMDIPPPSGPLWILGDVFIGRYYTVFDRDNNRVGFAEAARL
Cathepsin D, sequence (P07339 65-162 limits assumed): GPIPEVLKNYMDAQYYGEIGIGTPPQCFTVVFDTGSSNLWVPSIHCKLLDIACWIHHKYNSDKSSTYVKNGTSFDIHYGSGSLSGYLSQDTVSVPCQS

In general, Ki refers to the equilibrium dissociation constant of an inhibitor or competing ligand from its target. The low end stands for a stronger hold on the target, the high end for a looser hold on the target. In turn, `CC(C)(C)NC(=O)c1ccccc1CC(O)C(Cc1ccccc1)NC(=O)C(CC(N)=O)NC(=O)C(Cc1cccc2ccccc12)NC(=O)OC(C)(C)C` (stereo not drawn) [Example 26, [2R-(2R*,3S*,6S*,9S*)]-N-t-Butyl-2-[2-hydroxy-3-phenylmethyl-4,7-diaza-5,8-dioxo-6-(2-amino-2-oxoethyl)-9-N(t-butoxycarbonyl)amino-10-naphth-1-yl]decyl benzamide] displayed a Ki of 2300 ± 410 nM.

For orientation: inhibition means the share of the control response that was lost under treatment. `CC(C)(C)NC(=O)c1ccccc1C[C@@H](O)[C@H](Cc1ccccc1)NC(=O)[C@H](Cc1c[nH]cn1)NC(=O)[C@H](Cc1cccc2ccccc12)NC(=O)OC(C)(C)C` [Example 27, [2R-(2R*,3S*,6S*,9S*)]-N-t-Butyl-2-[2-hydroxy-3-phenylmethyl-4,7-diaza-5,8-dioxo-6-(imidazol-4-ylmethyl)-9-N(t-butoxycarbonyl)amino-10-naphth-1-yl]decyl benzamide]: the inhibition at 4 µM under setting [1] worked out at 40%.

In the case of `CC(C)(C)NC(=O)c1ccccc1C[C@@H](O)[C@H](Cc1ccccc1)NC(=O)[C@H](Cc1cnc[nH]1)NC(=O)[C@@H](Cc1cccc2ccccc12)NC(=O)OC(C)(C)C` [Example 28, [2R-(2R*,3S*,6S*,9R*)]-N-t-Butyl-2-[2-hydroxy-3-phenylmethyl-4,7-diaza-5,8-dioxo-6-(imidazol-4-ylmethyl)-9-N(t-butoxycarbonyl)amino-10-naphth-1-yl]decyl benzamide], under setting [1], the inhibition at 4 µM was 6%.

With `CC(C)(C)NC(=O)c1ccccc1C[C@@H](O)[C@H](Cc1ccccc1)NC(=O)[C@@H](CC(=O)O)NS(C)(=O)=O` [Example 31, [2R-(2R*,3S*,6R*)]-N-t-Butyl-2-[2-hydroxy-3-phenylmethyl-4-aza-5-oxo-6-N(methylsulfonyl)amino-7-carboxy]heptyl benzamide], the inhibition at 4 µM under setting [1] was 43%.

On to `CC(C)(C)NC(=O)c1ccccc1C[C@@H](O)[C@H](Cc1ccccc1)NC(=O)[C@H](CC(N)=O)NS(=O)(=O)CCc1cccc2ccccc12` [Example 32, [2R-(2R*,3S*,6S*)]-N-t-Butyl-2-[2-hydroxy-3-phenylmethyl-4-aza-5-oxo-6-N(naphth-1-ylethylsulfonyl)amino-7-carbamoyl]heptyl benzamide], for which the inhibition at 4 µM under setting [1] is 12%.

`CC(C)C(NC(=O)OCc1ccccc1)C(=O)NC(Cc1ccccc1)C(O)C(O)C(Cc1ccccc1)NC(=O)C(NC(=O)OCc1ccccc1)C(C)C` [Example 33, 1,6-Diphenyl-2(S),5(S)-di[N-[2(S)-N(benzyloxycarbonyl)amino-3-methyl-butanoyl]amino]-3,4-dihydroxyhexane]: the Ki is 23 ± 3 nM.

With `CC(C)C(NC(=O)OCc1ccc2ccccc2n1)C(=O)NC(Cc1ccccc1)C(O)C(O)C(Cc1ccccc1)NC(=O)C(NC(=O)OCc1ccc2ccccc2n1)C(C)C` [Example 34, 1,6-Diphenyl-2(S),5(S)-di[N-[2(S)-N(quinolin-2-ylmethoxycarbonyl)amino-3-methylbutanoyl]amino]-3,4-dihydroxyhexane], the Ki worked out at 18 nM.

`CC(C)C(NC(=O)OCc1ccccn1)C(=O)NC(Cc1ccccc1)C(O)C(O)C(Cc1ccccc1)NC(=O)C(NC(=O)OCc1ccccn1)C(C)C` [Example 35, 1,6-Diphenyl-2(S),5(S)-di[N-[2(S)-N(pyrid-2-ylmethoxycarbonyl)amino-3-methylbutanoyl]amino]-3,4-dihydroxyhexane] showed a Ki of 86 nM.

Broadly, the % inhibition is the relative decrease from the control value, in per cent. High values mean a response far below the control, low ones a response near the control. “[1S-(1R*,4R*,5S*)]-N-(1-(2-Amino-2-oxoethyl)-2-oxo-3-aza-4-phenylmethyl-5-hydroxy-6-(2-(1-t-butylamino-1- oxomethyl)phenyl)hexyl)-2-(6,7,8,9-tetrahydronaphthyl) carboxamide [Example 11]”: the “% inhibition at 4µ M” value under setting [1] is reported as 32%.
